Converted amounts (≈) assume the structure as drawn. Counter-ions that a name gives are not always drawn. Like-named read-outs stand apart in the source and are kept apart here.
Tests used:
[1] = tested on: E. coli ATCC 25922; test: Antibiotic susceptibility testing with lysis buffer sample preparation and PB detection; type: cell-based; settings: for MIC: E. coli ATCC 25922 spiked in blood and MH media, 16 hr of incubation; for growth of bacteria (OD value) with increase in antibiotic concentration: ampicillin 2 mg/L to 16 mg/L, gentamicin 0.5 mg/L to 8 mg/L, after 16 hr of incubation
Source text: FIGS. 7 and 8 show antibiotic susceptibility testing. The lysis buffer based sample preparation method combined with detection using PB formation was used to perform antibiotic susceptibility testing (recommended by EUCAST [15]) using different concentration of ampicillin and gentamicin in separate experiments, on E. coli ATCC 25922 bacteria strain (10^6 CFU/mL) spiked in blood (sample) and in MH media (positive control). ‘MH+Lysis buffer’ is used as negative control (NC). […] The corresponding decrease in PB colour formation on the filter paper with increase in ampicillin and gentamicin concentration is shown on top of each bar in the graphs of the FIG. 7 and FIG. 8, respectively. The MIC of ampicillin and gentamicin was determined to be 16 and 8 mg/L respectively, which was in agreement with the MIC range provided by EUCAST for E. coli ATCC 25922.

[2] = tested on: bacteria

CC1(C)S[C@@H]2[C@H](NC(=O)[C@H](N)c3ccccc3)C(=O)N2[C@H]1C(=O)O [ampicillin]
MIC ([1]; Escherichia coli, ATCC25922, read-out: MIC): 16 µg/mL (≈ 45.8 µM)
growth of bacteria (OD value) with increase in antibiotic concentration [1]: growth of bacteria decreased

gentamicin
MIC [1]: 8 µg/mL
growth of bacteria (OD value) with increase in antibiotic concentration [1]: growth of bacteria decreased

O=C(O)CC(O)(CC(=O)O)C(=O)O [Citrate, ferric ammonium citrate]
toxicity to bacteria [2]: not toxic

Reference: patent US20240240136A1, “SELECTIVE LYSIS OF MAMMALIAN EUKARYOTIC CELLS AND VISUALIZATION OF VIABLE BACTERIAL CELLS” (priority 2021, published 2024)
